Values quoted from earlier work as cited in patent publication US20040009207A1, “Medicinal beverage containing molecular oxygen” (priority 2000, published 2004).
Like-named read-outs stand apart in the source and are kept apart here.

solubility of O2 in one litre water (0° C.): 0.0491 L
solubility of O2 in one litre water (50° C.): 0.0209 L
Structure (SMILES): O=O [O2, molecular oxygen]
